Converted amounts (≈) assume the structure as drawn.
What was measured:
Format in all cases: cell-based
E. Coli. Vogel = test: In vitro minimal inhibitory concentration, E. Coli. Vogel; conditions: Escherichia coli
E. Coli. Brig = test: In vitro minimal inhibitory concentration, E. Coli. Brig; conditions: Escherichia coli
Staph UC76 = test: In vitro minimal inhibitory concentration, Staph UC76
Klebs. Pneum. MGH 2 = test: In vitro minimal inhibitory concentration, Klebs. Pneum. MGH 2
Pseudomonas BRK 12-4-4 = test: In vitro minimal inhibitory concentration, Pseudomonas BRK 12-4-4; conditions: BRK1244
Entero Cloac. IM 11 = test: In vitro minimal inhibitory concentration, Entero Cloac. IM 11
Serr. Mar. IMM 16 = test: In vitro minimal inhibitory concentration, Serr. Mar. IMM 16
Pseudomonas UI 18 = test: In vitro minimal inhibitory concentration, Pseudomonas UI 18; conditions: UI18
Pseudomonas #28 = test: In vitro minimal inhibitory concentration, Pseudomonas #28; conditions: Pseudomonas #28; in vitro; read-out: Minimal Inhibitory Concentration
Prot Vulg. = test: In vitro minimal inhibitory concentration, Prot Vulg.
Staph S 18713 = test: In vitro minimal inhibitory concentration, Staph S 18713
Strep. fec. MGH 2 = test: In vitro minimal inhibitory concentration, Strep. fec. MGH 2

SMILES | MIC (E. Coli. Vogel) [mg/L] | MIC (E. Coli. Brig) [mg/L] | MIC (Staph UC76) [mg/L] | MIC (Klebs. Pneum. MGH 2) [mg/L] | MIC (Pseudomonas BRK 12-4-4) [mg/L] | MIC (Entero Cloac. IM 11) [mg/L] | MIC (Serr. Mar. IMM 16) [mg/L] | MIC (Pseudomonas UI 18) [mg/L] | MIC (Pseudomonas #28) [mg/L] | MIC (Prot Vulg.) [mg/L] | MIC (Staph S 18713) [mg/L] | MIC (Strep. fec. MGH 2) [mg/L]
CC(=O)N1CC(O)C[C@H]1C(=O)Nc1ccc(-c2ccc(C(=O)N[C@@H](C(=O)NC3C(=O)N4C(C(=O)O)=C(CSc5nnnn5CC(=O)O)CSC34)c3ccccc3)c(=O)[nH]2)cc1 (stereo partly drawn) [Example 30, N-[6-[4-(N-Acetyl-4-hydroxy-L-prolylamino)phenyl]-1,2-dihydro-2-oxonicotinyl]-7-[D-2-amino-2-phenylacetamido]-3-[[(1-carboxymethyl-1H-tetrazol-5-yl)thio]methyl]-3-cephem-4-carboxylic acid] | 0.8 (≈ 0.916 µM) | 3.1 (≈ 3.55 µM) | 6.3 (≈ 7.22 µM) | 1.6 (≈ 1.83 µM) | 12.5 (≈ 14.3 µM) | 3.1 (≈ 3.55 µM) | 12.5 (≈ 14.3 µM) | 6.3 (≈ 7.22 µM) | 6.3 (≈ 7.22 µM) | 1.6 (≈ 1.83 µM) | 25 (≈ 28.6 µM) | > 50
CC(=O)OCC1=C(C(=O)O)N2C(=O)C(NC(=O)[C@H](NC(=O)c3ccc(-c4ccc(NC(=O)[C@@H]5CCC(=O)N5C)cc4)[nH]c3=O)c3ccccc3)C2SC1 (stereo partly drawn) [Example 34, N-[6-[4-[N-Methyl-5-oxo-L-prolylamino]phenyl]-1,2-dihydro-2-oxo-nicotinyl]-7-[D-2-amino-2-phenylacetamido]-3-acetoxymethyl-3-cephem-4-carboxylic acid] | 3.1 (≈ 4.17 µM) | 12.5 (≈ 16.8 µM) | 0.4 (≈ 0.539 µM) | 6.3 (≈ 8.48 µM) | 12.5 (≈ 16.8 µM) | 12.5 (≈ 16.8 µM) | 50 (≈ 67.3 µM) | 6.3 (≈ 8.48 µM) | 6.3 (≈ 8.48 µM) | 12.5 (≈ 16.8 µM) | 3.1 (≈ 4.17 µM) | 25 (≈ 33.7 µM)
CC(=O)N[C@@H](C)C(=O)Nc1ccc(-c2ccc(C(=O)N[C@@H](C(=O)NC3C(=O)N4C(C(=O)O)=C(CSc5nnnn5C)CSC34)c3ccccc3)c(=O)[nH]2)cc1 (stereo partly drawn) [Example 20, N-[6-[4-(N-Acetyl-L-alanylamino)phenyl]-1,2-dihydro-2-oxonicotinyl]7-[D-2-amino-2-phenylacetamido]-3-[[(1-methyl-1H-tetrazol-5-yl)thio]methyl]-3-cephem-4-carboxylic acid] | 1.6 (≈ 2.03 µM) | 6.3 (≈ 8.01 µM) | 1.6 (≈ 2.03 µM) | 1.6 (≈ 2.03 µM) | 12.5 (≈ 15.9 µM) | 6.3 (≈ 8.01 µM) | 25 (≈ 31.8 µM) | 12.5 (≈ 15.9 µM) | 12.5 (≈ 15.9 µM) | 12.5 (≈ 15.9 µM) | – | 25 (≈ 31.8 µM)
CC(=O)N[C@H](C)C(=O)Nc1ccc(-c2ccc(C(=O)N[C@@H](C(=O)NC3C(=O)N4C(C(=O)O)=C(COC(C)=O)CSC34)c3ccccc3)c(=O)[nH]2)cc1 (stereo partly drawn) [Example 4, N-[6-[4-(N-Acetyl-D-alanylamino)phenyl]-1,2-dihydro-2-oxonicotinyl]-7-[D-2-amino-2-phenylacetamido]-3-acetoxymethyl-3-cephem-4-carboxylic acid] | 3.1 (≈ 4.24 µM) | 12.5 (≈ 17.1 µM) | 0.8 (≈ 1.09 µM) | 6.3 (≈ 8.62 µM) | 12.5 (≈ 17.1 µM) | 12.5 (≈ 17.1 µM) | 50 (≈ 68.4 µM) | 6.3 (≈ 8.62 µM) | 6.3 (≈ 8.62 µM) | 25 (≈ 34.2 µM) | – | 25 (≈ 34.2 µM)
CC(=O)N[C@H](CCC(N)=O)C(=O)Nc1ccc(-c2ccc(C(=O)N[C@@H](C(=O)NC3C(=O)N4C(C(=O)O)=C(CSc5nnnn5CC(=O)O)CSC34)c3ccccc3)c(=O)[nH]2)cc1 (stereo partly drawn) [Example 37, N-[6-[4-(N-Acetyl-D-glutaminylamino)phenyl]-1,2-dihydro-2-oxonicotinyl]-7-[D-2-amino-2-phenylacetamido]-3-[[(1-carboxymethyl-1H-tetrazol-5-yl)thio]methyl]-3-cephem-4-carboxylic acid] | 0.8 (≈ 0.901 µM) | 6.3 (≈ 7.1 µM) | 6.3 (≈ 7.1 µM) | 3.1 (≈ 3.49 µM) | 12.5 (≈ 14.1 µM) | 6.3 (≈ 7.1 µM) | 12.5 (≈ 14.1 µM) | 12.5 (≈ 14.1 µM) | 6.3 (≈ 7.1 µM) | 3.1 (≈ 3.49 µM) | – | > 50
CC(=O)N[C@H](C)C(=O)Nc1ccc(-c2ccc(C(=O)N[C@@H](C(=O)NC3C(=O)N4C(C(=O)O)=C(COC(N)=O)CSC34)c3ccccc3)c(=O)[nH]2)cc1 (stereo partly drawn) [Example 24, N-[6-[4(N-Acetyl-D-alanylamino)phenyl]-1,2-dihydro-2-oxonicotinyl]-7-[D-2-amino-phenylacetamido]-3-carbamoyloxymethyl-3-cephem-4-carboxylic acid] | 6.3 (≈ 8.61 µM) | 25 (≈ 34.2 µM) | 0.4 (≈ 0.547 µM) | 12.5 (≈ 17.1 µM) | 12.5 (≈ 17.1 µM) | 25 (≈ 34.2 µM) | > 50 | 12.5 (≈ 17.1 µM) | 12.5 (≈ 17.1 µM) | 12.5 (≈ 17.1 µM) | – | 25 (≈ 34.2 µM)
CC(=O)NC(C)C(=O)Nc1ccc(-c2ccc(C(=O)N[C@@H](C(=O)NC3C(=O)N4C(C(=O)O)=C(COC(C)=O)CSC34)c3ccccc3)c(=O)[nH]2)cc1 (mixture of isomers) [Example 3, N-[6-[4-(N-Acetyl-DL-alanylamino)phenyl]-1,2-dihydro-2-oxonicotinyl]-7-[D-2-amino-2-phenylacetamido]-3-acetoxymethyl cephem-4-carboxylic acid] | 3.1 | 12.5 | 0.4 | 6.3 | 12.5 | 25 | 25 | 6.3 | 12.5 | 25 | – | 25
